Paper PMC12040169 (PLOS Biology, 2025)

Experiment: in vitro
Conditions: human, hela cells, % viability

Point of comparison: `CN(C)CCSc1cc(N2CCCC2)ncn1` [CBK105295], viability at 28.5 h, 10 µM 116%. Against it:
- Cc1ccc(S(=O)(=O)N2CCCC(C(=O)O)C2)cc1 (centres unmarked) [CBK100948] — lower, 88.6%
- Cc1cc(C)c(-n2nnnc2SCc2ccc(F)cc2)c(C)c1 [CBK100994] — lower, 103%
- COc1cccc(C(=O)Nc2nc(-c3ccc(C(C)C)cc3)cs2)c1 [CBK101110] — lower, 87%
- COc1ccc(-n2c(C)c(C#N)c3cc(Br)c(O)c(Br)c32)cc1 [CBK101113] — lower, 91.6%
- CCOC(=O)c1cnn2c(C)cc(C)nc12 [CBK101119] — lower, 103%
- N#CC1CCCc2c1[nH]c1ccc(Cl)cc21 (centres unmarked) [CBK101438] — lower, 63.9%
- O=C(O)C1CCCCN1S(=O)(=O)c1ccc(Br)cc1 (centres unmarked) [CBK101789] — lower, 88.6%
- Fc1ccc(-n2nnnc2SCc2ccc(Cl)cc2)cc1Cl [CBK102075] — lower, 97.5%
- N#Cc1c(N)ncnc1-c1ccccc1 [CBK102172] — lower, 84.2%
- Cc1ccc(S(=O)(=O)Nc2nc(C)cs2)cc1 [CBK102326] — lower, 100%
- COc1c(Br)cc(/C=C2\SC(=O)NC2=O)cc1Br [CBK102455] — lower, 101%
- CCCc1[nH]nc(O)c1C(=O)c1c(F)cccc1Cl [CBK103524] — lower, 103%
- CCCC1=NN=C(c2cc(C(F)(F)F)ccc2C(F)(F)F)C1C(=O)OCC (centres unmarked) [CBK103527] — higher, 118%
- COc1cc(OC)nc(CC(=O)O)n1 [CBK103537] — lower, 104%
- CC[C@@H]1COCCN1C(=O)c1sc2ccccc2c1Cl [CBK103641] — lower, 90.3%
- CC(C)Nc1nc2ccccc2nc1SCCOc1ccccc1 [CBK103668] — lower, 89.8%
- CC(C)Nc1nc2ccccc2nc1SCCN(C)C [CBK103672] — lower, 115%
- c1ccc(OCCSc2cc(N3CCCC3)ncn2)cc1 [CBK103689] — lower, 113%
- FC(F)(F)c1ccnc(SCCc2ccccn2)c1 [CBK103709] — lower, 105%
- FC(F)(F)c1ccc(SCc2cccs2)nc1 [CBK103711] — lower, 96.3%
- FC(F)(F)c1ccc(SCc2ccccc2)nc1 [CBK103715] — lower, 89.7%
- FC(F)(F)c1ccnc(SCCOc2ccccc2)n1 [CBK103721] — lower, 73.9%
- FC(F)(F)c1nc2ccccc2nc1SCCOc1ccccc1 [CBK103726] — lower, 102%
- CCN(CC)C(=O)CN1C(=O)C2(Nc3ccccc3C(=O)N2c2ccc(F)cc2)c2ccccc21 (centres unmarked) [CBK103751] — lower, 83.3%
- Cc1ccc(C2(O)CC3CCC(C2)N3C(=O)C2CCC2)cc1 (centres unmarked) [CBK103860] — lower, 99.2%
- CC(NC(=O)C(C)(C)C)c1nc(-c2cccnc2)n[nH]1 (centres unmarked) [CBK104007] — lower, 94.2%
- CC(NC(=O)C(C)(C)C)c1nc(-c2ccncc2)n[nH]1 (centres unmarked) [CBK104074] — lower, 91.9%
- Cn1c(=O)n(CC(=O)NC2CC2)c2cccnc21 [CBK104297] — lower, 98.7%
- c1cc(-c2n[nH]c(C3CCNCC3)n2)ccn1 [CBK104676C] — lower, 85.2%
- O=C1N=C(NC23CC4CC(CC(C4)C2)C3)OC1c1ccccc1 (centres unmarked) [CBK105263] — lower, 107%
- CC(C)Nc1nccnc1SCCN(C)C [CBK105290] — lower, 92.1%
- CC(=O)NCCSc1cc(NC(C)C)ncn1 [CBK105293] — lower, 96.8%
- CN(C)CCSc1cncc(N2CCCC2)n1 [CBK105294] — lower, 104%
- CC(=O)NCCSc1cc(C(F)(F)F)ccn1 [CBK105297] — lower, 107%
- CC(=O)NCCSc1ccc(C(F)(F)F)cn1 [CBK105298] — lower, 94.3%
- CC(=O)NCCSc1cccc(C(F)(F)F)n1 [CBK105299] — lower, 112%
- FC(F)(F)c1ccnc(SCCc2cnccn2)n1 [CBK105300] — lower, 88.6%
- CCc1[nH]nc(O)c1Cc1c(Cl)cccc1Cl [CBK105304] — lower, 115%
- COCc1[nH]nc(O)c1Cc1c(Cl)cccc1Cl [CBK105305] — lower, 91%
- CC(C)Nc1cc(SCCN(C)C)ncn1 [CBK105616] — lower, 109%
- CC(C)Nc1cc(SCCc2ccccn2)ncn1 [CBK105617] — lower, 97.8%
- CC(=O)NCCSc1nc2ccccc2nc1NC(C)C [CBK105618] — lower, 102%
- CC(=O)NCCSc1cc(N2CCCC2)ncn1 [CBK105621] — lower, 106%
- CN(C)C(=S)Oc1ccc2[nH]c3c(c2c1)CCNC31CCN(CCOc2ccccc2)C1 (centres unmarked) [CBK105748] — lower, 74.8%
- Cc1ccccc1NC(=O)NCc1ccccc1 [CBK105833] — lower, 86.8%
- CNC(=O)c1nn(CCCc2ccc(OC)cc2)c2ccccc12 [CBK105842] — lower, 109%
- COCCNc1nc(-c2ccc3c(c2)OCO3)ccc1C(=O)N(C)CCN(C)C [CBK105915] — lower, 103%
- COCCNc1nc(-c2cccc(Cl)c2Cl)ccc1C(=O)N(C)CCN(C)C [CBK105922] — lower, 98.3%
- COCCNc1nc(-c2ccc3[nH]ccc3c2)ccc1C(=O)N1CCN(C)CC1 [CBK105956] — lower, 92.2%
- COCCNc1nc(-c2cc(C(C)C)ccc2OC)ccc1C(=O)NCCNC(C)=O [CBK105985] — lower, 96.6%
- CNC(=O)c1ccc(-c2ccc(C)c(C)c2)nc1NCCOC [CBK105999] — lower, 96.6%
- CNC(=O)c1ccc(-c2cccc(OC(F)(F)F)c2)nc1NCCOC [CBK106000] — lower, 96.4%
- CNC(=O)c1ccc(-c2ccccc2C)nc1NCCOC [CBK106007] — lower, 99.7%
- COCCNC(=O)c1ccc(-c2ccc(OC)cc2)nc1N1CCN(C(=O)c2ccco2)CC1 [CBK106010] — lower, 88.1%
- CC(=O)Nc1cccc(-c2ccc(C(=O)NCc3ccc(F)cc3)c(N3CCN(C(=O)c4ccco4)CC3)n2)c1 [CBK106012] — lower, 85.5%
- COc1cccc(-c2ccc(C(=O)NCc3ccccc3SC)c(N3CCN(C(=O)c4ccco4)CC3)n2)c1 [CBK106025] — lower, 94.3%
- COc1cccc(NC(=O)c2ccc(-c3cc(C(F)(F)F)cc(C(F)(F)F)c3)nc2N(C)C)c1 [CBK106028] — higher, 119%
- COCCNC(=O)c1ccc(-c2cccc(Cl)c2Cl)nc1N(C)C [CBK106057] — lower, 89.4%
- CN(C)CCN(C)C(=O)c1ccc(-c2ccccc2)nc1N(C)C [CBK106070] — lower, 88.1%
- CC(=O)c1ccc(-c2ccc(C(=O)N(C)CCN(C)C)c(N(C)C)n2)s1 [CBK106071] — lower, 85.6%
- CN(C)CCN(C)C(=O)c1ccc(-c2ccc3c(c2)OCO3)nc1N(C)C [CBK106072] — lower, 92.7%
- CN(C)CCN(C)C(=O)c1ccc(-c2cccc(N(C)C)c2)nc1N(C)C [CBK106077] — lower, 89.6%
- CN(C)CCN(C)C(=O)c1ccc(-c2cccc(OC(F)(F)F)c2)nc1N(C)C [CBK106081] — lower, 90.3%
- Cc1csc(-c2ccc(C(=O)N(C)CCN(C)C)c(N(C)C)n2)c1 [CBK106088] — lower, 94.1%
- COCc1cccc(-c2ccc(C(=O)N(C)CCN(C)C)c(N(C)C)n2)c1 [CBK106091] — lower, 103%
- CN1CCN(C(=O)c2ccc(-c3ccc(N4CCOCC4)cc3)nc2N(C)C)CC1 [CBK106114] — lower, 90%
- CN1CCN(C(=O)c2ccc(-c3ccccc3)nc2N(C)C)CC1 [CBK106115] — lower, 84.4%
- CNC(=O)c1ccc(-c2ccc3[nH]ccc3c2)nc1N(C)C [CBK106146] — lower, 90.9%
- CNC(=O)c1ccc(-c2cc(C)cs2)nc1N(C)C [CBK106150] — lower, 86.8%
- CC(=O)c1ccc(-c2ccc(C(=O)N3CCN(C)CC3)c(N3CCOCC3)n2)s1 [CBK106181] — lower, 96.3%
- Cc1ccc(C(=O)NCc2nc3ccccc3[nH]2)c(N2CCOCC2)n1 [CBK106200] — lower, 88.4%
- Cc1ccc(C(=O)NCCN2CCOCC2)c(N2CCOCC2)n1 [CBK106201] — lower, 87%
- Cc1ccc(C(=O)NCc2ccc3c(c2)CCO3)c(N2CCOCC2)n1 [CBK106202] — lower, 88.8%
- CNC(=O)c1ccc(-c2ccccc2OC)nc1N1CCOCC1 [CBK106210] — lower, 87.4%
- CNC(=O)c1cccc(NC(=O)c2ccc(C)nc2N2CCOCC2)c1 [CBK106223] — lower, 95.1%
- CSc1ccccc1CNC(=O)c1ccc(C)nc1N1CCOCC1 [CBK106224] — lower, 91.9%
- COCCNC(=O)c1ccc(-c2cc(C(C)C)ccc2OC)nc1NCC1CC1 [CBK106256] — lower, 94.1%
- Cc1csc(-c2ccc(C(=O)N(C)CCN(C)C)c(NCC3CC3)n2)c1 [CBK106279] — lower, 84.2%
- CNC(=O)c1ccc(-c2ccc(N3CCOCC3)cc2)nc1NCC1CC1 [CBK106305] — lower, 102%
- CNC(=O)c1ccc(-c2cc(OC)c(OC)c(OC)c2)nc1NCC1CC1 [CBK106312] — lower, 101%
- CNC(=O)c1ccc(-c2cccc(COC)c2)nc1NCC1CC1 [CBK106322] — lower, 90.7%
- COCCNC(=O)c1ccc(-c2ccccc2C)nc1NC(C)=O [CBK106325] — lower, 109%
- CC(=O)N(C)c1nc(-c2ccccc2C)ccc1C(=O)NC1CCCCC1 [CBK106333] — lower, 96.9%
- CC(=O)N(C)c1nc(-c2ccccc2C)ccc1C(=O)N(C)C [CBK106350] — lower, 89%
- O=C(NCc1nc2ccccc2[nH]1)c1cc(-c2ccc(Cl)cc2)cnc1NCc1ccc2c(c1)OCO2 [CBK106377] — lower, 102%
- O=C(NCc1ccco1)c1cc(-c2ccc3[nH]ccc3c2)cnc1NCCOc1ccccc1 [CBK106388] — lower, 89.9%

Same assay, conditions: human, hela cells, % viability, bulk resorufin, single well

Point of comparison: `FC(F)(F)c1ccc(COc2cccc(-c3ccc4c(c3)COC3(CCNCC3)O4)c2)cc1` [CBK105868], viability at 28.5 h, 10 µM 83.7%. Against it:
- CC(C)(C)OC(=O)N1CCC2(CC1)OCc1cc(-c3cccc(OCc4ccc(Cl)c(Cl)c4)c3)ccc1O2 [CBK105230] — higher, 86.6%
- CC(C)(C)OC(=O)N1CCC2(CC1)OCc1cc(-c3cccc(OCC(=O)Nc4ccccc4)c3)ccc1O2 [CBK105255] — higher, 99.6%
- Fc1ccc(OCCOc2ccccc2-c2ccc3c(c2)COC2(CCNCC2)O3)cc1 [CBK105745] — higher, 88.7%
- COc1ccc2[nH]cc(CC(=O)Nc3cccc(-c4ccc5c(c4)COC4(CCNCC4)O5)c3)c2c1 [CBK105859] — lower, 78%
